Assay results as given in patent US20130324576A1, “THERAPEUTIC COMPOUNDS” (Takeda Pharmaceutical Company Limited, priority 2012, published 2013).
pIC50: −log10 of the molar value.

These compounds were tested against T1, human PKR1 receptors (Homo sapiens, UniProt Q8TCW9) (assay: PKR1 antagonist assay: block of PK1-mediated intracellular calcium release (FLIPR Tetra, Calcium 5 dye)). Details: RBL2H3 cells expressing human PKR1; 10 min pre-incubation, stimulation with PK1 at EC80; calcium fluorescence.
T1 construct: expressed in transfected cells; host or cells: RBL2H3 cells (rat basophilic leukaemia line) expressing human PKR1
T1 sequence (Q8TCW9 whole entry): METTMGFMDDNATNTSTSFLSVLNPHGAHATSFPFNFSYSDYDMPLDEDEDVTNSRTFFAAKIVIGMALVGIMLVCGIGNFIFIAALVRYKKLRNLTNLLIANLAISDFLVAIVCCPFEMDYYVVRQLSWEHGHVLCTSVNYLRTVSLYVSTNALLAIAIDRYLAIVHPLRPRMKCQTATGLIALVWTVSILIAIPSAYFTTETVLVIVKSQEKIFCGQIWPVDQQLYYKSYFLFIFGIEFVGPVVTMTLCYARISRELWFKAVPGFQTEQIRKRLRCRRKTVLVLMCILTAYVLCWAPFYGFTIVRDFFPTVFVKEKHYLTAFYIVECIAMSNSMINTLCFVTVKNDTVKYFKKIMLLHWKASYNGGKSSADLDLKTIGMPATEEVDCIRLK
Type: cell-based
Description: Prokineticin receptor 1 (PKR1) antagonists may be functionally assessed by measurement of change in intracellular calcium levels induced by Gq mediated increase in inositol triphosphate (IP3) levels. The ability of a compound to block the intracellular release of calcium mediated by PK1 in RBL2H3 cells expressing human PKR1 receptors is determined as a measure of the compound's antagonist activity in vitro.
Approximately 10,000 cells per assay well are seeded in normal culture medium in a 384 well plate (Corning). Twenty-four hours after seeding, the cells are loaded with a calcium sensitive fluorescent dye by replacing the culture medium with assay buffer (1× Hanks buffered saline, 25 mM HEPES, 0.1% w/v fatty acid free BSA (bovine serum albumin), pH 7.4) containing 1 mM probenecid and 1× Calcium 5 Reagent (Molecular Devices). Cells are incubated at 37° C. for 1 hour to allow for dye uptake.
To test for antagonist activity, test compounds at a final concentration range between 0.32 nM-10 μM (diluted in assay buffer) are added to the assay wells and allowed to incubate for 10 minutes prior to stimulation with PK1. After incubation with test compounds the assay plate is placed in a FLIPR Tetra (Molecular Devices) and PK1 (diluted in assay buffer) is added at the determined EC80 concentration (final). Ligand-dependent changes in intracellular calcium levels are determined by measuring changes in fluorescence of the dye at […] following excitation at 485 nm.

Row | Compound | pIC50
1 | Cc1nn(C)c(C)c1S(=O)(=O)N1CCC(Oc2ccc(Br)cc2F)CC1 [Example 14, 4-(4-Bromo-2-fluorophenoxy)-1-[(1,3,5-trimethyl-1H-pyrazol-4-yl)sulfonyl]piperidine] | 6.33
2 | Cc1nn(C)c(C)c1S(=O)(=O)N1CCC(Oc2ccc(Cl)c(F)c2)CC1 [Example 45, 4-(4-Chloro-3-fluorophenoxy)-1-(trimethyl-1H-pyrazole-4-sulfonyl)piperidine] | 5.85
3 | COc1cc(Cl)ccc1CC1CCN(S(=O)(=O)c2c(C)n[nH]c2C)CC1 [Example 78, 4-(4-Chloro-2-methoxybenzyl)-1-((3,5-dimethyl-1H-pyrazol-4-yl)sulfonyl)piperidine] | 7.15
4 | Cc1nn(C)c(C)c1S(=O)(=O)N1CCC(O)(Cc2ccc(Cl)cc2)CC1 [Example 57, 4-(4-Chlorobenzyl)-1-((1,3,5-trimethyl-1H-pyrazol-4-yl)sulfonyl)piperidin-4-ol] | 5.80
5 | Cc1c(S(=O)(=O)N2CCC(Oc3ccc(Cl)cc3)CC2)c(C(F)(F)F)nn1C [Example 16, 4-(4-Chlorophenoxy)-1-{[1,5-dimethyl-3-(trifluoromethyl)-1H-pyrazol-4-yl]sulfonyl}piperidine] | 5.34
6 | Cc1n[nH]c(C)c1S(=O)(=O)N1CCC(C(c2ccc(Cl)cc2)C(F)F)CC1 (stereo not drawn) [Example 111, 4-(1-(4-Chlorophenyl)-2,2-difluoroethyl)-1-((3,5-dimethyl-1H-pyrazol-4-yl)sulfonyl)piperidine] | 6.47
7 | COc1cc(Cl)ccc1CC1CCN(S(=O)(=O)c2c(C)nn(C)c2C)CC1 [Example 79, 4-(4-Chloro-2-methoxybenzyl)-1-((1,3,5-trimethyl-1H-pyrazol-4-yl)sulfonyl)piperidine] | 7.30
8 | CCOC(=O)C1(Cc2ccc(Br)cc2)CCN(S(=O)(=O)c2c(C)n[nH]c2C)CC1 [Example 62, Ethyl 4-(4-bromobenzyl)-1-((3,5-dimethyl-1H-pyrazol-4-yl)sulfonyl)piperidine-4-carboxylate] | 6.17
9 | Cc1cnn(C)c1S(=O)(=O)N1CCC(Oc2ccc(Cl)cc2Cl)CC1 [Example 36, 4-(2,4-Dichlorophenoxy)-1-(1,4-dimethyl-1H-pyrazole-5-sulfonyl)piperidine] | 5.96
10 | CCc1nn(C)c(CC)c1S(=O)(=O)N1CCC(Oc2ccc(Cl)cc2Cl)CC1 [Example 28, 4-(2,4-Dichlorophenoxy)-1-[(3,5-diethyl-1-methyl-1H-pyrazol-4-yl)sulfonyl]piperidine] | 6.49
11 | Cc1nn(C)c(C)c1S(=O)(=O)N1CCC(Oc2ccc(Cl)cc2)C(C)C1 (stereo not drawn) [Example 21, 4-(4-Chlorophenoxy)-3-methyl-1-[(1,3,5-trimethyl-1H-pyrazol-4-yl)sulfonyl]piperidine] | 5.68
12 | Cc1nn(C)c(C)c1S(=O)(=O)N1CCC(O)(Cc2ccc(Cl)c(Cl)c2)CC1 [Example 69, 4-(3,4-Dichlorobenzyl)-1-((1,3,5-trimethyl-1H-pyrazol-4-yl)sulfonyl)piperidin-4-ol] | 5.19
13 | Cc1nn(C)c(Cl)c1S(=O)(=O)N1CCC(Oc2ccc(Cl)cc2Cl)CC1 [Example 25, 1-[(5-Chloro-1,3-dimethyl-1H-pyrazol-4-yl)sulfonyl]-4-(2,4-dichlorophenoxy)piperidine] | 5.89
14 | Cc1n[nH]c(C)c1S(=O)(=O)N1CCC(Cc2ccc(Cl)c(F)c2)CC1 [Example 71, 4-(4-Chloro-3-fluorobenzyl)-1-((3,5-dimethyl-1H-pyrazol-4-yl)sulfonyl)piperidine] | 6.11
15 | Cc1n[nH]c(C)c1S(=O)(=O)N1CCC(Nc2ccc(Cl)cc2)CC1 [Example 103, N-(4-Chlorophenyl)-1-((3,5-dimethyl-1H-pyrazol-4-yl)sulfonyl)piperidin-4-amine] | 5.75
16 | Cc1n[nH]c(C)c1S(=O)(=O)N1CCC(Oc2ccc(Cl)cc2Cl)CC1 [Example 22, 4-(2,4-Dichlorophenoxy)-1-[(3,5-dimethyl-1H-pyrazol-4-yl)sulfonyl]piperidine] | 5.93
17 | Cc1cnn(C)c1S(=O)(=O)N1CCC(Oc2ccc(Cl)cc2)CC1 [Example 37, 4-(4-Chlorophenoxy)-1-(1,4-dimethyl-1H-pyrazole-5-sulfonyl)piperidine] | 5.13
18 | Cc1nn(C)c(C)c1S(=O)(=O)N1CCC(Oc2ccc(F)cc2)CC1 [Example 20, 4-(4-Fluorophenoxy)-1-[(1,3,5-trimethyl-1H-pyrazol-4-yl)sulfonyl]piperidine] | 5.44
19 | Cc1nn(C)c(C)c1S(=O)(=O)N1CCC(Oc2ccc(Cl)cc2C(F)(F)F)CC1 [Example 39, 4-[4-Chloro-2-(trifluoromethyl)phenoxy]-1-(trimethyl-1H-pyrazole-4-sulfonyl)piperidine] | 6.68
20 | Cc1n[nH]c(C)c1S(=O)(=O)N1CCC(C(CO)c2ccc(Cl)cc2)CC1 (stereo not drawn) [Example 100, 2-(4-Chlorophenyl)-2-(1-((3,5-dimethyl-1H-pyrazol-4-yl)sulfonyl)piperidin-4-yl)ethanol] | 5.03

Continued by rising pIC50, values first:

Row | pIC50 | Compound
21 | 5.16 | Cc1n[nH]c(C)c1S(=O)(=O)N1CCC(O)(Cc2ccc(Cl)cc2F)CC1 [Example 75, 4-(4-Chloro-2-fluorobenzyl)-1-((3,5-dimethyl-1H-pyrazol-4-yl)sulfonyl)piperidin-4-ol]
22 | 5.33 | Cc1nn(C)c(C)c1S(=O)(=O)N1CCC(Oc2ccc(C(F)(F)F)cc2)CC1 [Example 12, 4-[4-(Trifluoromethyl)phenoxy]-1-[(1,3,5-trimethyl-1H-pyrazol-4-yl)sulfonyl]piperidine]
23 | 5.34 | COC(c1ccc(Cl)cc1)C1CCN(S(=O)(=O)c2c(C)n[nH]c2C)CC1 (single isomer, unassigned) [Example 97, 4-((4-Chlorophenyl)(methoxy)methyl)-1-((3,5-dimethyl-1H-pyrazol-4-yl)sulfonyl)piperidine]
24 | 5.52 | COC(c1ccccc1)C1CCN(S(=O)(=O)c2c(C)n[nH]c2C)CC1 (stereo not drawn) [Example 110, 1-((3,5-Dimethyl-1H-pyrazol-4-yl)sulfonyl)-4-(methoxy(phenyl)methyl)piperidine]
25 | 5.64 | CCn1nc(C)c(S(=O)(=O)N2CCC(Oc3ccc(C)cc3)CC2)c1C [Example 9, 1-[(1-Ethyl-3,5-dimethyl-1H-pyrazol-4-yl)sulfonyl]-4-(4-methylphenoxy)piperidine]
26 | 5.69 | Cc1nn(C)c(Cl)c1S(=O)(=O)N1CCC(Cc2ccc(Cl)cc2)CC1 [Example 68, 1-((5-Chloro-1,3-dimethyl-1H-pyrazol-4-yl)sulfonyl)-4-(4chlorobenzyl)piperidine]
27 | 5.82 | Cc1nn(C)c(C)c1S(=O)(=O)N1CCC(Nc2ccc(Cl)cc2)CC1 [Example 51, N-(4-Chlorophenyl)-1-((1,3,5-trimethyl-1H-pyrazol-4-yl)sulfonyl)piperidin-4-amine]
28 | 6.10 | Cc1nn(C)c(C)c1S(=O)(=O)N1CCC(Oc2ccc(Cl)cc2Cl)CC1 [Example 13, 4-(2,4-Dichlorophenoxy)-1-[(1,3,5-trimethyl-1H-pyrazol-4-yl)sulfonyl]piperidine]
29 | 6.15 | Cc1nn(C)c(C)c1S(=O)(=O)N1CCC(C(O)c2ccc(Cl)cc2)CC1 (stereo not drawn) [Example 95, (4-Chlorophenyl)(1-((1,3,5-trimethyl-1H-pyrazol-4-yl)sulfonyl)piperidin-4-yl)methanol]
30 | 6.17 | Cc1nn(C)c(C)c1S(=O)(=O)N1CCC(F)(Cc2ccc(Cl)cc2F)CC1 [Example 81, 4-(4-Chloro-2-fluorobenzyl)-4-fluoro-1-((1,3,5-trimethyl-1H-pyrazol-4-yl)sulfonyl)piperidine]
